ChEMBL document CHEMBL5137096, “Antiviral Profiling of C-18- or C-19-Functionalized Semisynthetic Abietane Diterpenoids” (J Nat Prod, 2022)
The source made the active and inactive calls. No cut-off for these calls is given here.

Assays:
[1] = tested on: Zika virus; assay type: functional, Vero E6; conditions: time 72 hrs
[2] = tested on: Chikungunya virus; assay type: functional, Vero E6; conditions: time 72 hrs
[3] = tested on: BHK-21; test: Cytotoxicity against golden hamster BHK-21 cells measured after 6 days by MTT assay; assay type: toxicity, cell-based, Mesocricetus auratus; conditions: bhk-21, 144 h, time 6 day
[4] = tested on: Vero C1008; test: Cytotoxicity against African green monkey Vero E6 cells measured after 72 hrs by MTT assay; assay type: toxicity, cell-based; conditions: chlorocebus sabaeus, vero c1008, 72 h
[5] = tested on: Zika virus; assay type: functional, Vero E6; conditions: time 72 hrs; remark: listed apart in the source
[6] = tested on: Human alphaherpesvirus 1; assay type: functional, 29R, Vero E6; conditions: time 72 hrs
[7] = tested on: dengue virus type 2; assay type: functional, Vero E6; conditions: time 72 hrs
[8] = tested on: dengue virus type 2; test: Antiviral activity against DENV2 infected in hamster BHK-21 cells assessed as inhibition of plaque formation by measuring reduction in PFU per well incubated for 6 days by crystal violet staining based assay; assay type: functional; conditions: time 6 day
[9] = tested on: Zika virus; test: Antiviral activity against ZIKV Col infected in African Green monkey Vero cells assessed as reduction in viral protein production at 3.1 to 25 ug/ml by ELISA relative control; assay type: functional; set-up: scale not given: the % may be the effect or the level left; conditions: dose 3.1-25 µg/ml; at 3.1 to 25 µg/mL
[10] = tested on: Zika virus; test: Antiviral activity against ZIKV Col infected in African Green monkey Vero cells assessed as inhibition of viral replication by measuring reduction in viral genomic copies at 12.5 to 25 ug/ml by qRT-PCR analysis; assay type: functional, organism-based; conditions: dose 12.5-25 µg/ml
[11] = tested on: Zika virus; test: Antiviral activity against ZIKV IMT17; assay type: functional, organism-based

Structure (SMILES) | EC [1] [µg/mL] | EC [2] [µg/mL] | CC100 [3] [µg/mL] | CC100 [4] [µg/mL] | EC [5] [µg/mL] | EC [6] [µg/mL] | EC [7] [µg/mL] | EC [8] [µg/mL] | Activity [9] [%] | inhibition [10] | EC50 [11] [µM]
COC(=O)[C@@]1(C)CCC[C@]2(C)c3cc(OC(C)=O)c(C(C)C)cc3C(=O)C[C@@H]12 | 25 | 25 | 25 | 50 | – | – | – | – | – | – | –
COC(=O)[C@]1(C)CCC[C@]2(C)c3cc(OC(C)=O)c(C(C)C)cc3CC[C@@H]12 | – | 25 | 50 | 50 | 12.5 | 12.5 | – | – | – | – | –
CC(C)c1cc2c(cc1O)[C@@]1(C)CCC[C@](C)(CO)[C@@H]1CC2=O | – | 25 | 25 | > 25 | – | 25 | – | – | – | – | –
COC(=O)[C@]1(C)CCC[C@]2(C)c3cc(OC(C)=O)c(C(C)C)cc3C(=O)C[C@@H]12 | – | – | 25 | 25 | – | 25 | – | – | – | – | –
CC(C)c1ccc2c(c1O)CC[C@H]1[C@](C)(C(=O)O)CCC[C@]21C | 25 | 25 | > 25 | > 25 | 12.5 | – | – | – | – | – | –
CC(C)c1cc2c(cc1O)[C@@]1(C)CCC[C@](C)(CO)[C@@H]1CC2 | 12.5 | 25 | 12.5 | 25 | – | 12.5 | – | – | – | – | –
CC(C)c1ccc2c(c1O)CC[C@H]1[C@](C)(CO)CCC[C@]21C | 12.5 | 12.5 | > 25 | > 25 | – | – | – | – | – | – | –
CC(C)c1cc2c(cc1O)[C@@]1(C)CCC[C@@](C)(C(=O)O)[C@@H]1CC2=O | – | 25 | 50 | > 50 | – | 25 | – | – | – | – | –
COC(=O)[C@@]1(C)CCC[C@]2(C)c3cc(O)c(C(C)C)cc3C(=O)C[C@@H]12 | – | 12.5 | 12.5 | 25 | – | – | 12 | – | – | – | –
COC(=O)[C@]1(C)CCC[C@]2(C)c3cc(O)c(C(C)C)cc3CC[C@@H]12 | – | 25 | 25 | 50 | – | 12.5 | – | – | – | – | –
CC(C)c1cc2c(cc1O)[C@@]1(C)CCC[C@](C)(C(=O)O)[C@@H]1CC2 [LAMBERTIC ACID] | 25 | 25 | > 50 | > 50 | 25 | 25 | 25 | – | – | – | –
CC(C)c1cc2c(cc1O)[C@@]1(C)CCCC(C)(C)[C@@H]1CC2 [FERRUGINOL] | 12.5 | 25 | > 50 | > 50 | – | – | 25 | 12.5 | – | – | –
Nc1nc2c(ncn2COCCO)c(=O)[nH]1 [ACYCLOVIR] | – | – | – | – | – | 1.5 | – | – | – | – | –
COC(=O)[C@]1(C)CCC[C@]2(C)c3ccc(C(C)C)c(O)c3CC[C@@H]12 | 12.5 | 12.5 | > 25 | > 25 | – | 12.5 | 25 | 3.1 | – | – | –
NC(=O)c1ncn([C@@H]2O[C@H](CO)[C@@H](O)[C@H]2O)n1 [RIBAVIRIN] | – | – | > 160 | > 160 | – | – | – | – | – | – | –
COC(=O)[C@]1(C)CCC[C@]2(C)c3ccc(C(C)C)cc3CC[C@@H]12 | 6.2 | – | 50 | > 50 | 12.5 | 25 | – | – | – | – | –
CC(C)c1cc2c(cc1O)[C@@]1(C)CCC[C@@](C)(CO)[C@@H]1CC2 [18-HYDROXYFERRUGINOL] | 25 | 12.5 | 50 | 50 | 12.5 | 12.5 | 25 | 3.1 | – | – | –
COC(=O)[C@]1(C)CCC[C@]2(C)c3cc(O)c(C(C)C)cc3C(=O)C[C@@H]12 | – | 25 | 25 | 50 | – | 25 | – | – | – | – | –
CC(C)c1cc2c(cc1O)[C@@]1(C)CCC[C@@](C)(C(=O)O)[C@@H]1CC2 | – | 25 | 12.5 | 25 | – | 12.5 | – | – | – | – | –
CC(C)c1cc2c(cc1O)[C@@]1(C)CCC[C@@](C)(CN3C(=O)c4ccccc4C3=O)[C@@H]1CC2 | 6.2 | 6.2 | > 50 | > 50 | 3.1 | 12.5 | 25 | 12.5 | <50 | Active | 7.7
CC(C)c1cc2c(cc1O)[C@@]1(C)CCC[C@](C)(C(=O)O)[C@@H]1CC2=O | – | – | 12.5 | 25 | – | – | – | – | – | – | –
COC(=O)[C@@]1(C)CCC[C@]2(C)c3cc(OC(C)=O)c(C(C)C)cc3CC[C@@H]12 | 12.5 | 25 | 25 | 25 | – | – | 12.5 | – | – | – | –
COC(=O)[C@@]1(C)CCC[C@]2(C)c3cc(C(C)=O)c(C(C)C)cc3CC[C@@H]12 | 25 | 25 | 50 | > 50 | 25 | 25 | 25 | – | – | – | –
CC(C)c1ccc2c(c1)CC[C@H]1C(C)(C(=O)O)CCC[C@]21C (stereo not given in full) | 12.5 | 12.5 | 50 | 50 | – | 25 | 25 | – | – | – | –
COC(=O)[C@]1(C)CCC[C@]2(C)c3cc(C(C)=O)c(C(C)C)cc3CC[C@@H]12 | – | 25 | 25 | > 50 | – | 12.5 | – | – | – | – | –
COC(=O)[C@@]1(C)CCC[C@]2(C)c3cc(O)c(C(C)C)cc3CC[C@@H]12 | 25 | 12.5 | 50 | > 50 | 12.5 | – | 25 | 12.5 | – | – | –
CC(C)c1ccc2c(c1)CC[C@H]1C(C)(CO)CCC[C@]21C (stereo not given in full) | 12.5 | 25 | > 50 | > 50 | – | – | 25 | 12.5 | – | – | –
CC(C)c1cc2c(cc1O)[C@@]1(C)CCC[C@@](C)(CO)[C@@H]1CC2=O | 12.5 | 25 | 12.5 | 25 | – | 12.5 | 12.5 | – | – | – | –
